The values that follow come from US10314823B2, “Substituted 1,2-dihydro-3H-pyrrolo[1,2-c]imidazol-3-one antibacterial compounds” (IDORSIA PHARMACEUTICALS LTD, priority 2015, dated 2019).

Assay in all cases: Bacterial growth minimal inhibitory concentration (CLSI broth microdilution)
What all share (format): cell-based

Experiment [1] deals with E. coli ATCC25922. To be noted: Escherichia coli, ATCC25922; quinolone-sensitive strain; cation-adjusted Mueller-Hinton Broth. The procedure:
(§1) Minimal Inhibitory Concentrations (MICs; mg/L) were determined in cation-adjusted Mueller-Hinton Broth by a microdilution method following the description given in “Methods for Dilution Antimicrobial Susceptibility Tests for Bacteria that Grow Aerobically”, Approved standard, 7th ed., Clinical and Laboratory Standards Institute (CLSI) Document M7-A7, Wayne, Pa., USA (2006).
(§2) All Reference Example compounds were tested against several Gram-negative bacteria. K. pneumoniae A-651 is a multiply resistant strain (in particular quinolone-resistant), while E. coli ATCC25922 and P. aeruginosa ATCC27853 are quinolone-sensitive strains. The corresponding antibacterial test results are given in Table 1 hereafter (MICs in mg/L).

Experiment [2] relates to K. pneumoniae A-651. The conditions noted are these: Klebsiella pneumoniae, A651; multiply resistant strain (in particular quinolone-resistant); cation-adjusted Mueller-Hinton Broth. The procedure:
as §1, §2

The subject of experiment [3] is P. aeruginosa ATCC27853. The conditions noted are these: Pseudomonas aeruginosa, ATCC27853; quinolone-sensitive strain; cation-adjusted Mueller-Hinton Broth. The procedure: as §1, §2

Values after ≈ are worked out from the molar mass of the structure shown.

One may read the MIC as the lowest concentration that inhibits growth of the organism. Low values mean inhibition by little substance, high ones a need for much substance. `C[C@@](CCN1Cc2cc(C#CC#C[C@@H]3C[C@H]3[C@H](O)CO)cn2C1=O)(C(=O)NO)S(C)(=O)=O` [Example 7, (2R)-4-(6-(((1R,2R)-2-((S)-1,2-dihydroxyethyl)cyclopropyl)buta-1,3-diyn-1-yl)-3-oxo-1H-pyrrolo[1,2-c]imidazol-2(3H)-yl)-N-hydroxy-2-methyl-2-(methylsulfonyl)butanamide]: the results for the minimum inhibitory concentration (MIC) in experiment [1], in experiment [2] and in experiment [3] were 0.5 µg/mL (≈ 1.08 µM), 2 µg/mL (≈ 4.31 µM) and 0.5 µg/mL (≈ 1.08 µM), respectively.

`C[C@@](CCN1Cc2cc(C#CC#CCOC(=O)N3CCC(O)CC3)cn2C1=O)(C(=O)NO)S(C)(=O)=O` [Example 8, (3R)-5-(2-(4-(hydroxyamino)-3-methyl-3-(methylsulfonyl)-4-oxobutyl)-3-oxo-2,3-dihydro-1H-pyrrolo[1,2-c]imidazol-6-yl)penta-2,4-diyn-1-yl 4-hydroxypiperidine-1-carboxylate]: the figures for the minimum inhibitory concentration (MIC) in experiment [1], in experiment [2] and in experiment [3] were 1 µg/mL (≈ 1.92 µM), 2 µg/mL (≈ 3.84 µM) and 2 µg/mL (≈ 3.84 µM), respectively.

Turning to `C[C@@](CCN1Cc2cc(C#CC#CCN3CCOC3=O)cn2C1=O)(C(=O)NO)S(C)(=O)=O` [Example 9, (2R)—N-hydroxy-2-methyl-2-(methylsulfonyl)-4-(3-oxo-6-(5-(2-oxooxazolidin-3-yl)penta-1,3-diyn-1-yl)-1H-pyrrolo[1,2-c]imidazol-2(3H)-yl)butanamide], the MIC was 2 µg/mL (≈ 4.32 µM) in experiment [1], 4 µg/mL (≈ 8.65 µM) in experiment [2] and 8 µg/mL (≈ 17.3 µM) in experiment [3].

Regarding `C[C@@](CCN1Cc2cc(C#Cc3ccc(COC(=O)N4CC(O)C4)cc3)cn2C1=O)(C(=O)NO)S(C)(=O)=O` [Example 10, (3R)-4-((2-(4-(hydroxyamino)-3-methyl-3-(methylsulfonyl)-4-oxobutyl)-3-oxo-2,3-dihydro-1H-pyrrolo[1,2-c]imidazol-6-yl)ethynyl)benzyl 3-hydroxyazetidine-1-carboxylate], the MIC stood at 0.25 µg/mL (≈ 0.459 µM) in experiment [1], 0.25 µg/mL (≈ 0.459 µM) in experiment [2] and 1 µg/mL (≈ 1.84 µM) in experiment [3].

For `CN(CCO)C(=O)OCc1ccc(C#Cc2cc3n(c2)C(=O)N(CC[C@](C)(C(=O)NO)S(C)(=O)=O)C3)cc1` [Example 11, (3R)-4-((2-(4-(hydroxyamino)-3-methyl-3-(methylsulfonyl)-4-oxobutyl)-3-oxo-2,3-dihydro-1H-pyrrolo[1,2-c]imidazol-6-yl)ethynyl)benzyl (2-hydroxyethyl)(methyl)carbamate], the minimal inhibitory concentration (MIC) in experiment [1] stood at 0.5 µg/mL (≈ 0.915 µM); in experiment [2] it was 0.5 µg/mL (≈ 0.915 µM); in experiment [3], 2 µg/mL (≈ 3.66 µM).

Regarding `C[C@@](CCN1Cc2cc(C#Cc3ccc(CN4CCC(N)C(F)(F)C4)cc3)cn2C1=O)(C(=O)NO)S(C)(=O)=O` (stereo partly drawn) [Example 14, (2R)-4-(6-((4-((4-amino-3,3-difluoropiperidin-1-yl)methyl)phenyl)ethynyl)-3-oxo-1H-pyrrolo[1,2-c]imidazol-2(3H)-yl)-N-hydroxy-2-methyl-2-(methylsulfonyl)butanamide], the figures for the MIC in experiment [1], in experiment [2] and in experiment [3] were 0.5 µg/mL (≈ 0.887 µM), 2 µg/mL (≈ 3.55 µM) and 1 µg/mL (≈ 1.77 µM), respectively.

As for `C[C@@](CCN1Cc2cc(C#Cc3ccc(C4(F)CNC4)cc3)cn2C1=O)(C(=O)NO)S(C)(=O)=O` [Example 15, (2R)-4-(6-((4-(3-fluoroazetidin-3-yl)phenyl)ethynyl)-3-oxo-1H-pyrrolo[1,2-c]imidazol-2(3H)-yl)-N-hydroxy-2-methyl-2-(methylsulfonyl)butanamide], the values for the MIC in experiment [1], in experiment [2] and in experiment [3] were 0.5 µg/mL (≈ 1.02 µM), 2 µg/mL (≈ 4.09 µM) and 1 µg/mL (≈ 2.05 µM), respectively.

In the case of `C[C@@](CCN1Cc2cc(C#Cc3ccc(C4(F)CN(C5COC5)C4)cc3)cn2C1=O)(C(=O)NO)S(C)(=O)=O` [Example 16, (2R)-4-(6-((4-(3-fluoro-1-(oxetan-3-yl)azetidin-3-yl)phenyl)ethynyl)-3-oxo-1H-pyrrolo[1,2-c]imidazol-2(3H)-yl)-N-hydroxy-2-methyl-2-(methylsulfonyl)butanamide], the MIC was found to be 0.25 µg/mL (≈ 0.459 µM) in experiment [1], 0.5 µg/mL (≈ 0.918 µM) in experiment [2] and 1 µg/mL (≈ 1.84 µM) in experiment [3].

Turning to `CN1CCN(C(=O)OCc2ccc(C#Cc3cc4n(c3)C(=O)N(CC[C@](C)(C(=O)NO)S(C)(=O)=O)C4)cc2)CC1` [Example 17, (3R)-4-((2-(4-(hydroxyamino)-3-methyl-3-(methylsulfonyl)-4-oxobutyl)-3-oxo-2,3-dihydro-1H-pyrrolo[1,2-c]imidazol-6-yl)ethynyl)benzyl 4-methylpiperazine-1-carboxylate], the MIC in experiment [1] came to 0.25 µg/mL (≈ 0.437 µM); in experiment [2], 0.5 µg/mL (≈ 0.875 µM); in experiment [3] it was 2 µg/mL (≈ 3.5 µM).

Take `C[C@@](CCN1Cc2cc(C#CC#CC3(F)CNC3)cn2C1=O)(C(=O)NO)S(C)(=O)=O` [Example 18, (2R)-4-(6-((3-fluoroazetidin-3-yl)buta-1,3-diyn-1-yl)-3-oxo-1H-pyrrolo[1,2-c]imidazol-2(3H)-yl)-N-hydroxy-2-methyl-2-(methylsulfonyl)butanamide]: the minimum inhibitory concentration (MIC) in experiment [1] worked out at 2 µg/mL (≈ 4.58 µM); in experiment [2] it was 4 µg/mL (≈ 9.16 µM); in experiment [3], 2 µg/mL (≈ 4.58 µM).

Turning to `C[C@@](CCN1Cc2cc(C#CC#CC3(F)CN(C4COC4)C3)cn2C1=O)(C(=O)NO)S(C)(=O)=O` [Example 19, (2R)-4-(6-((3-fluoro-1-(oxetan-3-yl)azetidin-3-yl)buta-1,3-diyn-1-yl)-3-oxo-1H-pyrrolo[1,2-c]imidazol-2(3H)-yl)-N-hydroxy-2-methyl-2-(methylsulfonyl)butanamide], the results for the minimum inhibitory concentration (MIC) in experiment [1], in experiment [2] and in experiment [3] were 0.25 µg/mL (≈ 0.508 µM), 1 µg/mL (≈ 2.03 µM) and 2 µg/mL (≈ 4.06 µM), respectively.

`CN1CC(F)(c2ccc(C#Cc3cc4n(c3)C(=O)N(CC[C@](C)(C(=O)NO)S(C)(=O)=O)C4)cc2)C1` [Example 20, (2R)-4-(6-((4-(3-fluoro-1-methylazetidin-3-yl)phenyl)ethynyl)-3-oxo-1H-pyrrolo[1,2-c]imidazol-2(3H)-yl)-N-hydroxy-2-methyl-2-(methylsulfonyl)butanamide]: the minimum inhibitory concentration (MIC) in experiment [1] was found to be 0.125 µg/mL (≈ 0.249 µM); in experiment [2], 0.25 µg/mL (≈ 0.497 µM); in experiment [3], 1 µg/mL (≈ 1.99 µM).

With `CN(C)C1(C#CC#Cc2cc3n(c2)C(=O)N(CC[C@](C)(C(=O)NO)S(C)(=O)=O)C3)CC1` [Example 21, (2R)-4-(6-((1-(dimethylamino)cyclopropyl)buta-1,3-diyn-1-yl)-3-oxo-1H-pyrrolo[1,2-c]imidazol-2(3H)-yl)-N-hydroxy-2-methyl-2-(methylsulfonyl)butanamide], the minimal inhibitory concentration (MIC) in experiment [1], in experiment [2] and in experiment [3] was 0.5 µg/mL (≈ 1.12 µM) throughout.

As to `C[C@@](CCN1Cc2cc(C#CC#CC3(COC(=O)N4CC(O)C4)CC3)cn2C1=O)(C(=O)NO)S(C)(=O)=O` [Example 22, (3R)-(1-((2-(4-(hydroxyamino)-3-methyl-3-(methylsulfonyl)-4-oxobutyl)-3-oxo-2,3-dihydro-1H-pyrrolo[1,2-c]imidazol-6-yl)buta-1,3-diyn-1-yl)cyclopropyl)methyl 3-hydroxyazetidine-1-carboxylate], the MIC in experiment [1] was found to be 1 µg/mL (≈ 1.88 µM); in experiment [2], 4 µg/mL (≈ 7.51 µM); in experiment [3] it was 4 µg/mL (≈ 7.51 µM).

For `CN1CCN(C(=O)OCC2(C#CC#Cc3cc4n(c3)C(=O)N(CC[C@](C)(C(=O)NO)S(C)(=O)=O)C4)CC2)CC1` [Example 23, (3R)-(1-((2-(4-(hydroxyamino)-3-methyl-3-(methylsulfonyl)-4-oxobutyl)-3-oxo-2,3-dihydro-1H-pyrrolo[1,2-c]imidazol-6-yl)buta-1,3-diyn-1-yl)cyclopropyl)methyl 4-methylpiperazine-1-carboxylate], the MIC in experiment [1] turned out to be 4 µg/mL (≈ 7.15 µM); in experiment [2], 4 µg/mL (≈ 7.15 µM); in experiment [3] it was 8 µg/mL (≈ 14.3 µM).
